Values quoted from earlier work as cited in patent publication US12576169B2, “Silicon-fluoride acceptor substituted radiopharmaceuticals and precursors thereof” (Technische Universität München, priority 2019, dated 2026).

Legend:
PSMA [1] = biological target: T1, PSMA (Homo sapiens, UniProt Q04609); details: PSMA binding affinity; literature; cited from earlier work
PSMA [2] = biological target: T1, PSMA; details: after 1 h; literature; cited from earlier work
[3] = radiolabeled established inhibitors; literature; cited from earlier work
[4] = Wangler et al. 2010; cited from earlier work

T1 sequence (Q04609 whole entry): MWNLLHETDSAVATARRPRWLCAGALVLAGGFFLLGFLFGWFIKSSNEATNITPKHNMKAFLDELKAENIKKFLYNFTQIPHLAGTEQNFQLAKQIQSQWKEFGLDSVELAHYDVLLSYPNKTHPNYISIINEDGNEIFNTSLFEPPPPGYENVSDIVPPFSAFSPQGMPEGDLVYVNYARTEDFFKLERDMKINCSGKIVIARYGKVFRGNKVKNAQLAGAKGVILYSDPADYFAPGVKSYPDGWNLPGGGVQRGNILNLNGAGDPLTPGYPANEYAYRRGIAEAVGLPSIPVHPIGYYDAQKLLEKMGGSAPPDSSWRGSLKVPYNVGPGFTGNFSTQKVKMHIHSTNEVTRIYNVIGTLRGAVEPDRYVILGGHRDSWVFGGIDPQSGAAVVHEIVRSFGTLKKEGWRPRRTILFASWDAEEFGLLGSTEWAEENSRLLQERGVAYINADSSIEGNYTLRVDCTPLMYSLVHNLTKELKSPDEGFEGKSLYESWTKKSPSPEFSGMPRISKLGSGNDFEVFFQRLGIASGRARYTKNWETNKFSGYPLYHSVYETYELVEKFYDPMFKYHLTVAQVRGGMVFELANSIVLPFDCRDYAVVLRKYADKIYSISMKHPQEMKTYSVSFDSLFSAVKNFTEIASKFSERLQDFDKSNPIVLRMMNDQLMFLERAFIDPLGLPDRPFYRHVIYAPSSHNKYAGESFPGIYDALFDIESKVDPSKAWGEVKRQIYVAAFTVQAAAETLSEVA

| Compound | IC50 (PSMA [1]) | Internalization (1 h) (PSMA [2]) | logP(o/w) [3] | log P(ow) [4] |
| --- | --- | --- | --- | --- |
| O=C([O-])CN(CCN(CC(=O)[O-])Cc1cc(CCC(=O)NCCCCCC(=O)NCCCC[C@H](NC(=O)N[C@@H](CCC(=O)O)C(=O)O)C(=O)O)ccc1[O-])Cc1cc(CCC(=O)O)ccc1[O-].[68Ga+3].[OH3+] [[^natGa/^68Ga]PSMA-11, PSMA-11] | 6.1 ± 0.8 nM | 91.1 ± 1.7 | −4.1 ± 0.1 | – |
| PSMA I&T [[^natGa/^68Ga]PSMA I&T] | 9.3 ± 3.3 nM | 59.2 ± 1.7 | −4.3 ± 0.3 | – |
| SiFA-Asn(AcNH-β-Glc)-Tyr^3-octreotate | – | – | – | 1.23 |
